Laboratory results: patent publication US20220119354A1, “DIAMINO-SUBSTITUTED PYRIDINES AND PYRIMIDINES AS HERBICIDES” (FMC Corporation, priority 2019, published 2022)

How the values were obtained:
Format in all cases: in vivo
[1] = tested on: sedge, umbrella (small-flower umbrella sedge, Cyperus difformis); assay: Test B flooded paddy test, umbrella sedge; details: Flood, 250 g ai/ha, applied to paddy water, 2-leaf stage, visual evaluation after 13 to 15 d
Summary of the method: (§1)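 2-leaf seedlings; pots flooded 3 cm above soil; compound added straight to paddy water; depth maintained. Greenhouse 13–15 d. Visual rating vs controls, 0–100 scale (0 = no effect, 100 = complete control).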

[2] = tested on: ryegrass, Italian (Lolium multiflorum); assay: Test A postemergence, Italian ryegrass; details: 0 to 100 scale
Summary of the method: (§2)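 0–100 visual control rating, ~10 d post-treatment, greenhouse. Pre = directed soil spray on seeded loam/sand; post = spray at 1–2 leaf stage. Surfactant-containing solvent formulation.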

[3] = tested on: foxtail, giant (Setaria faberii); assay: Test A preemergence, giant foxtail; details: 0 to 100 scale
Summary of the method: as §2

kochia (Kochia scoparia) [4] = assay: Test A preemergence, kochia; details: 0 to 100 scale
Summary of the method: as §2

[5] = tested on: pigweed (Amaranthus retroflexus); assay: Test A postemergence, pigweed; details: 0 to 100 scale
Summary of the method: as §2

[6] = tested on: ragweed (common ragweed, Ambrosia elatior); assay: Test A postemergence, ragweed; details: 0 to 100 scale
Summary of the method: as §2

[7] = tested on: wheat (Triticum aestivum); assay: Test A postemergence, wheat; details: 0 to 100 scale
Summary of the method: as §2

[8] = tested on: blackgrass (Alopecurus myosuroides); assay: Test A postemergence, blackgrass; details: 0 to 100 scale
Summary of the method: as §2

[9] = tested on: foxtail, giant (Setaria faberii); assay: Test A postemergence, giant foxtail; details: 0 to 100 scale
Summary of the method: as §2

[10] = tested on: barnyardgrass (Echinochloa crus-galli); assay: Test A postemergence, barnyardgrass; details: 0 to 100 scale
Summary of the method: as §2

[11] = tested on: barnyardgrass (Echinochloa crus-galli); assay: Test A preemergence, barnyardgrass; details: 0 to 100 scale
Summary of the method: as §2

[12] = tested on: ragweed (common ragweed, Ambrosia elatior); assay: Test A preemergence, ragweed; details: 0 to 100 scale
Summary of the method: as §2

[13] = tested on: pigweed (Amaranthus retroflexus); assay: Test A preemergence, pigweed; details: 0 to 100 scale
Summary of the method: as §2

[14] = tested on: ducksalad (Heteranthera limosa); assay: Test B flooded paddy test, ducksalad; details: Flood, 250 g ai/ha, applied to paddy water, 2-leaf stage, visual evaluation after 13 to 15 d
Summary of the method: as §1

[15] = tested on: galium (catchweed bedstraw, Galium aparine); assay: Test A postemergence, galium; details: 0 to 100 scale
Summary of the method: as §2

[16] = tested on: ryegrass, Italian (Lolium multiflorum); assay: Test A preemergence, Italian ryegrass; details: 0 to 100 scale
Summary of the method: as §2

[17] = tested on: barnyardgrass (Echinochloa crus-galli); assay: Test B flooded paddy test, barnyardgrass; details: Flood, 250 g ai/ha, applied to paddy water, 2-leaf stage, visual evaluation after 13 to 15 d
Summary of the method: as §1

rice (Oryza sativa) = assay: Test B flooded paddy test, rice; details: Flood, 250 g ai/ha, applied to paddy water, 2-leaf stage, visual evaluation after 13 to 15 d
Summary of the method: as §1

kochia (Kochia scoparia) [18] = assay: Test A postemergence, kochia; details: 0 to 100 scale
Summary of the method: as §2

corn (Zea mays) = assay: Test A postemergence, corn; details: 0 to 100 scale
Summary of the method: as §2

SMILES	Plant response rating, Sedge, Umbrella (0 to 100 scale, 0 is no effect, 100 is complete control) [1]	Plant response rating, Ryegrass, Italian ([2]; 125 g ai/ha)	Plant response rating, Ryegrass, Italian ([2]; 500 g ai/ha)	Plant response rating, Foxtail, Giant ([3]; 125 g ai/ha)	Plant response rating, Foxtail, Giant ([3]; 500 g ai/ha)	Plant response rating, Kochia (kochia (Kochia scoparia) [4]; 125 g ai/ha)	Plant response rating, Kochia (kochia (Kochia scoparia) [4]; 500 g ai/ha)	Plant response rating, Pigweed ([5]; 125 g ai/ha)	Plant response rating, Pigweed ([5]; 500 g ai/ha)	Plant response rating, Ragweed ([6]; 125 g ai/ha)	Plant response rating, Ragweed ([6]; 500 g ai/ha)	Plant response rating, Wheat ([7]; 125 g ai/ha)	Plant response rating, Wheat ([7]; 500 g ai/ha)	Plant response rating, Blackgrass ([8]; 125 g ai/ha)	Plant response rating, Blackgrass ([8]; 500 g ai/ha)	Plant response rating, Foxtail, Giant ([9]; 125 g ai/ha)	Plant response rating, Foxtail, Giant ([9]; 500 g ai/ha)	Plant response rating, Barnyardgrass ([10]; 125 g ai/ha)	Plant response rating, Barnyardgrass ([10]; 500 g ai/ha)	Plant response rating, Barnyardgrass ([11]; 125 g ai/ha)	other results
Cc1ccc2cc([C@@H](C)Nc3ncc(C(F)(F)F)c(N)n3)oc2c1 [Compound 14]	0	0	0	90	100	60	90	90	90	0	70	0	0	30	30	10	90	10	40	90	Plant response rating, Barnyardgrass ([11]; 500 g ai/ha): 100; Plant response rating, Ragweed ([12]; 125 g ai/ha): 100; Plant response rating, Ragweed ([12]; 500 g ai/ha): 100; Plant response rating, Pigweed ([13]; 125 g ai/ha): 90; Plant response rating, Pigweed ([13]; 500 g ai/ha): 100; Plant response rating, Ducksalad (0 to 100 scale, 0 is no effect, 100 is complete control) [14]: 0; Plant response rating, Galium ([15]; 125 g ai/ha): 80; Plant response rating, Galium ([15]; 500 g ai/ha): 80; Plant response rating, Ryegrass, Italian ([16]; 125 g ai/ha): 0; Plant response rating, Ryegrass, Italian ([16]; 500 g ai/ha): 60; Plant response rating, Barnyardgrass (0 to 100 scale, 0 is no effect, 100 is complete control) [17]: 0; Plant response rating, Rice (0 to 100 scale, 0 is no effect, 100 is complete control) (rice (Oryza sativa)): 0; Plant response rating, Kochia (kochia (Kochia scoparia) [18]; 125 g ai/ha): 90; Plant response rating, Kochia (kochia (Kochia scoparia) [18]; 500 g ai/ha): 90; Plant response rating, Corn (corn (Zea mays); 125 g ai/ha): 10; Plant response rating, Corn (corn (Zea mays); 500 g ai/ha): 10
C[C@@H](Nc1ncc(C(F)(F)F)c(N)n1)c1cc2ccc(C(F)(F)F)cc2o1 [Compound 15]	0	0	30	20	90	40	50	90	90	20	40	0	0	0	30	30	80	30	30	20	Plant response rating, Barnyardgrass ([11]; 500 g ai/ha): 70; Plant response rating, Ragweed ([12]; 125 g ai/ha): 30; Plant response rating, Ragweed ([12]; 500 g ai/ha): 90; Plant response rating, Pigweed ([13]; 125 g ai/ha): 80; Plant response rating, Pigweed ([13]; 500 g ai/ha): 100; Plant response rating, Ducksalad (0 to 100 scale, 0 is no effect, 100 is complete control) [14]: 0; Plant response rating, Galium ([15]; 125 g ai/ha): 60; Plant response rating, Galium ([15]; 500 g ai/ha): 80; Plant response rating, Ryegrass, Italian ([16]; 125 g ai/ha): 0; Plant response rating, Ryegrass, Italian ([16]; 500 g ai/ha): 70; Plant response rating, Barnyardgrass (0 to 100 scale, 0 is no effect, 100 is complete control) [17]: 0; Plant response rating, Rice (0 to 100 scale, 0 is no effect, 100 is complete control) (rice (Oryza sativa)): 0; Plant response rating, Kochia (kochia (Kochia scoparia) [18]; 125 g ai/ha): 40; Plant response rating, Kochia (kochia (Kochia scoparia) [18]; 500 g ai/ha): 80; Plant response rating, Corn (corn (Zea mays); 125 g ai/ha): 0; Plant response rating, Corn (corn (Zea mays); 500 g ai/ha): 20
